Laboratory results published in the CheMixHub ionic liquid set.

Assay: xn = mol fraction of the nth substance listed
Conditions: for electrical conductivity: 101.3 kPa

CCCC[n+]1ccn(C)c1.O=S(=O)([O-])C(F)(F)F + c1ccccc1
100 kPa
Conditions | viscosity [mPa·s]
298.15 K, x2 = 0 | 88
298.15 K, x2 = 0.122 | 64.3
298.15 K, x2 = 0.573 | 12.62
308.15 K, x2 = 0.122 | 42.2
308.15 K, x2 = 0.304 | 25.4
318.15 K, x2 = 0.467 | 10.64
318.15 K, x2 = 0.573 | 7.22
328.15 K, x2 = 0.304 | 13.62
328.15 K, x2 = 0.467 | 8.2

CCCC[n+]1ccn(C)c1.[Cl-] + OC[C@H]1O[C@H](O[C@H]2[C@H](O)[C@@H](O)C(O)O[C@@H]2CO)[C@H](O)[C@@H](O)[C@@H]1O + O
298.15 K
Conditions | electrical conductivity [S/m]
x2 = 0, x1 = 8.71e-06 | 0.00583
x2 = 0, x1 = 1.208e-05 | 0.00794
x2 = 0, x1 = 1.485e-05 | 0.00965
x2 = 0, x1 = 1.707e-05 | 0.01101
x2 = 0, x1 = 1.937e-05 | 0.01241
x2 = 0, x1 = 2.164e-05 | 0.0138
x2 = 0, x1 = 2.397e-05 | 0.0152
x2 = 0, x1 = 2.6e-05 | 0.0164
x2 = 0, x1 = 2.824e-05 | 0.0177
x2 = 0, x1 = 3.029e-05 | 0.019

O=C(O)CC(=O)O + CC[n+]1ccn(C)c1.[Cl-]
Conditions | viscosity [mPa·s]
303.15 K, 101.33 kPa, x2 = 0.667 | 138.9

CCCC[n+]1ccn(C)c1.COP(=O)([O-])OC + CCCC[n+]1ccn(C)c1.O=S(=O)([N-]S(=O)(=O)C(F)(F)F)C(F)(F)F
Conditions | viscosity [mPa·s]
288.15 K, 100 kPa, x2 = 0 | 1455

CCCCCCCC[n+]1ccn(C)c1.F[P-](F)(F)(F)(F)F + CN(C)C=O
viscosity [mPa·s], 101 kPa
Conditions | 293.15 K | 303.15 K | 313.15 K | 323.15 K | 333.15 K | 343.15 K | 353.15 K | 363.15 K
x1 = 0.002835 | 0.969 | 0.865 | 0.776 | 0.705 | 0.644 | 0.591 | 0.546 | 0.505
x1 = 0.00569 | 0.994 | 0.887 | 0.798 | 0.723 | 0.659 | 0.604 | 0.556 | 0.514
x1 = 0.01089 | 1.044 | 0.929 | 0.838 | 0.754 | 0.686 | 0.628 | 0.578 | 0.533
x1 = 0.01648 | 1.097 | 0.973 | 0.879 | 0.786 | 0.714 | 0.652 | 0.599 | 0.552
x1 = 0.02114 | 1.144 | 1.013 | 0.916 | 0.815 | 0.739 | 0.674 | 0.617 | 0.569
x1 = 0.02677 | 1.201 | 1.059 | 0.961 | 0.848 | 0.768 | 0.699 | 0.639 | 0.588

CCCCCCCCn1cc[n+](C)c1.O=[N+]([O-])[O-] + CCCCO
101 kPa
Conditions | viscosity [mPa·s]
283.15 K, x2 = 0.168 | 770
293.15 K, x2 = 0.358 | 137
293.15 K, x2 = 0.57 | 38.5
293.15 K, x2 = 0.676 | 20.63
293.15 K, x2 = 0.848 | 7.8
298.15 K, x2 = 0.458 | 59.3
298.15 K, x2 = 0.57 | 31.8
298.15 K, x2 = 0.848 | 6.79
303.15 K, x2 = 0.458 | 47.9
303.15 K, x2 = 0.676 | 14.91
308.15 K, x2 = 0.358 | 64.5
308.15 K, x2 = 0.676 | 12.81
313.15 K, x2 = 0.168 | 123
313.15 K, x2 = 0.358 | 52.2
318.15 K, x2 = 0.358 | 42.8
323.15 K, x2 = 0.458 | 23.19
323.15 K, x2 = 0.57 | 14.15
323.15 K, x2 = 0.676 | 8.67
323.15 K, x2 = 0.848 | 3.61
328.15 K, x2 = 0.458 | 17.18

CCCCCCCCn1cc[n+](C)c1.F[B-](F)(F)F + CCOC(C)=O
298.15 K, 101 kPa
Conditions | viscosity [mPa·s]
x2 = 0.204 | 115.5
x2 = 0.3986 | 41.35
x2 = 0.4461 | 31.64
x2 = 0.5984 | 12.72
x2 = 0.624 | 10.93
x2 = 0.8017 | 3.1
x2 = 0.953 | 0.74

CCCCCCCCCCCCCC[P+](CCCCCC)(CCCCCC)CCCCCC.O=S(=O)([N-]S(=O)(=O)C(F)(F)F)C(F)(F)F + CCCCCC[n+]1ccn(C)c1.O=S(=O)([N-]S(=O)(=O)C(F)(F)F)C(F)(F)F
100 kPa
Conditions | viscosity [mPa·s]
278.15 K, x2 = 0.404 | 870
283.15 K, x2 = 0.097 | 770

CCCC[n+]1ccn(C)c1.N[C@@H](CCC(=O)O)C(=O)[O-] + CO
101 kPa
Conditions | viscosity [mPa·s]
298.15 K, x2 = 0.2002 | 46.1
298.15 K, x2 = 0.2995 | 34.4
298.15 K, x2 = 0.7 | 4.97
298.15 K, x2 = 0.9 | 1.24
303.15 K, x2 = 0.6002 | 9.62
308.15 K, x2 = 0.6002 | 8.63
308.15 K, x2 = 0.8001 | 2.83
313.15 K, x2 = 0.2002 | 25.6
313.15 K, x2 = 0.7 | 4.55

CCOP(=O)([O-])OCC.CC[n+]1ccn(C)c1 + CCCO + O
100 kPa
Conditions | viscosity [mPa·s]
293.15 K, x2 = 0.347, x3 = 0.3491 | 90
303.15 K, x2 = 0.294, x3 = 0.304 | 78
313.15 K, x2 = 0.15, x3 = 0.1487 | 93
313.15 K, x2 = 0.199, x3 = 0.1954 | 76
323.15 K, x2 = 0.048, x3 = 0.0487 | 80
